These results are taken from PMC6222357, “Liquid Chromatography-Tandem Mass Spectrometry Simultaneous Determination and Pharmacokinetic Study of Fourteen Alkaloid Components in Dog Plasma after Oral Administration of Corydalis bungeana Turcz Extract” (Molecules : A Journal of Synthetic Chemistry and Natural …, 2018).

Series [1] can be described thus: Stability of the analytes in beagle plasma QC samples under different storage conditions. The format is physicochemical, beagle dog. The following applies: n = 6; for Stability (% RE) Long-Term: 2 weeks at −80 °C; for Stability (% RE) Short-Term: 4 h at ambient temperature; for Stability (% RE) Freeze-Thaw: three freeze (−80 °C)-thaw cycles; for Stability (% RE) Post-Preparative: 12 h after sample preparation at 4 °C. The procedure:
As illustrated in Table 4. The stability of QC samples at three evaluated concentrations contained low, medium and high under different stored conditions was assessed on the basis of peak areas in comparison with freshly prepared QC sample.
(§1) The stability of the fourteen analytes in beagle dogs investigated by analyzing QC samples of each analyte at three QC levels (LQC, MQC and HQC) and each level contained six replicates. The short-term stability was assessed during storage for 4 h at ambient temperature. The long-term stability was determined after the QC samples had been stored for 2 weeks at −80 °C. The freeze-thaw stability was determined after three freeze at −80 °C and thaw cycles. and post-preparative stability was during storage for 12 h after sample preparation at 4 °C. The room temperature stability for stock solution was determined after storing the sample at 25 °C for 24 h. A series of concentrations of stability testing QC samples was gained by the calibration curve which was established from freshly prepared standard samples.

Series [2] in a line: Room temperature stability of stock solution. The format is physicochemical. The following applies: 25 °C for 24 h, n = 6. As to the method:
as §1

On the set-up of series [3]: method as in PMID 26805956. The conditions noted are these: rat plasma, single oral administration of C. bungeana extract; cited from earlier work.
Series [4] in a line: Pharmacokinetic study in beagle dogs after oral administration of C. bungeana extract (UHPLC-MS/MS of plasma). The following applies: male, beagle, dog, plasma, po, 0.12 g/kg.
Protocol: The developed UHPLC-MS/MS method was employed to determine the pharmacokinetics of the fourteen components in C. bungeana after a single oral administration of 0.12 g/kg (equivalent to 1180.8 µg/kg A, 100.8 µg/kg B, 172.8 µg/kg C, 194.4 µg/kg D, 147.6 µg/kg E, 291.6 µg/kg F, 7.2 µg/kg G, 64.8 µg/kg H, 10.8 µg/kg I, 435.6 µg/kg J, 7.2 µg/kg K, 2851.2 µg/kg L, 694.8 µg/kg M, 928.8µg/kg N) to six beagle dogs. […] According to the Meeh-Rubn method, we established a final oral dosage of 0.12 g/kg in dogs. The plasma concentrations of the fourteen components at each time point were detected and the data gained from six beagle dogs were averaged.
Before the experiment, the beagle dogs were fasted for 12 h but given water during the research period. Blood (300 µL) was collected from the forelimb vein plexus at a few specific time points (0.083, 0.25, 0.5, 0.75 and 1, 2, 3, 4, 6, 8, 12, 24 h) after the oral administration of the extract of C. bungeana (0.12 g/kg). After centrifugation at 13,000 rpm for 10 min, the plasma was collected immediately and maintained at −80 °C until sample analysis.
Using a liquid-liquid extraction method, 100 µL of methanol and 50 µL of IS (bifendate) were added to a beagle dog plasma sample (100 µL) followed by vortex for 30 s. Then 3 mL of aether was accurately added and the mixture was vortexed for 60 s. After this step, the samples were put into a centrifuge (XiangYi Technologies, Changsha, Hunan, China). The organic supernatant was pipetted into clean glass tubes individually after centrifugation 3800 rpm for 6 min. The upper organic layer was removed and evaporated to dryness at 40 °C under a stream of nitrogen. The residue was then redissolved with 100 µL of mobile phase (28% acetonitrile), vortexed for 30 s and filtered by a 0.22 µm membrane. A 10 µL aliquot of the solution was injected into the UHPLC-MS/MS system for analysis.
Concentrations of fourteen alkaloids in beagle dog blood were calculated employing the Excel program (Microsoft Corp., Redmond, WA, USA). Pharmacokinetic parameters were calculated using non-compartmental methods. The elimination rate constant (Ke) was calculated employing the linear regression of the terminal points in a semi-log plot of the plasma concentration against time. The elimination half-life (t1/2) was calculated using the formula. t1/2 = 0.693/Ke(1)
The area under the blood concentration versus time curve up to the last quantifiable time point (AUC0→t) was calculated by the linear trapezoidal rule. The area under the plasma concentration –time curve to time infinity (AUC0→∞) was calculated as follows: AUC0→∞ = AUC0→t + Ct/Ke(2)
The maximum observed blood concentration (Cmax) and the time to reach maximum observed blood concentration (Tmax) were obtained directly from the concentration-time curve.

The structures appear in SMILES notation. Read-outs that look alike come from different tables or passages of the source.

As to `COc1ccc(CCNC(=O)/C=C/c2ccc(O)c(O)c2)cc1` [Z23, 7′-(3′,4′-dihydroxyphenyl)-N-[(4-methoxyphenyl)-ethyl]propena-mide], the figures for the “Stability (% RE) Long-Term” value in series [1] (high QC in beagle plasma), in series [1] (low QC in beagle plasma) and in series [1] (medium QC in beagle plasma) were 9.00 % RE, −8.16 % RE and 9.86 % RE, respectively. The “Stability (% RE) Short-Term” value stood at 10.85 % RE in series [1] (high QC in beagle plasma), 10.52 % RE in series [1] (low QC in beagle plasma) and 9.94 % RE in series [1] (medium QC in beagle plasma). Moreover, the “Stability (% RE) Freeze-Thaw” value is on record as 12.43 % RE in series [1] (high QC in beagle plasma), 5.35 % RE in series [1] (low QC in beagle plasma) and 12.92 % RE in series [1] (medium QC in beagle plasma). The “Stability (% RE) Post-Preparative” value was −6.09 % RE in series [1] (high QC), 12.10 % RE in series [1] (low QC) and 11.32 % RE in series [1] (medium QC). In addition, the “Stability (% RE) Room Temperature for Stock-Solution” value worked out at 2.30 % RE in series [2] (high QC level), 3.65 % RE in series [2] (low QC level) and 1.64 % RE in series [2] (medium QC level). In addition, the time to peak (Tmax) in series [3] is 3.71 h; in series [4], 0.96 ± 0.1 h. In addition, the area under the curve AUC(0-inf) in series [4] turned out to be 747 ± 95.2 ng·h/mL. The molecule further displayed an AUC(0-t) in series [4] of 682 ± 74.8 ng·h/mL. This molecule also gave a Cmax in series [4] of 237 ± 13.7 ng/mL. In series [4], this molecule gave a half-life of 6.34 ± 1.21 h.

Regarding `CN1CCc2cc3c(cc2C(=O)Cc2ccc4c(c2C1)OCO4)OCO3` [Protopine, protopine], in series [1] (high QC in beagle plasma), the “Stability (% RE) Long-Term” value is reported as 13.11 % RE, the “Stability (% RE) Short-Term” value came to 12.18 % RE and the “Stability (% RE) Freeze-Thaw” value was found to be 10.26 % RE. Also, the “Stability (% RE) Post-Preparative” value in series [1] (high QC) was 10.57 % RE. For the same molecule, in series [1] (low QC in beagle plasma), the “Stability (% RE) Long-Term” value is recorded as −5.39 % RE, the “Stability (% RE) Short-Term” value turned out to be 5.52 % RE and the “Stability (% RE) Freeze-Thaw” value came out at 3.72 % RE. Also, the “Stability (% RE) Post-Preparative” value in series [1] (low QC) was 1.65 % RE. Besides, in series [1] (medium QC in beagle plasma), the “Stability (% RE) Long-Term” value is listed as 7.93 % RE, the “Stability (% RE) Short-Term” value was 8.75 % RE and the “Stability (% RE) Freeze-Thaw” value is listed as 4.17 % RE. The “Stability (% RE) Post-Preparative” value in series [1] (medium QC) is 11.35 % RE. For the same molecule, in series [3], the time to peak (Tmax) is recorded as 1.96 h. Also, in series [4], the area under the curve AUC(0-inf) was 1080 ± 136 ng·h/mL, the exposure AUC(0-t) amounted to 1030 ± 106 ng·h/mL, the highest level (Cmax) was 434 ± 73.9 ng/mL and the Tmax turned out to be 0.88 ± 0.13 h. For the same molecule, the half-life in series [4] was 4.92 ± 1.49 h.
